Assay results published in ChEMBL document CHEMBL3991601, “The target landscape of clinical kinase drugs” (Science, 2017).
Activity calls are given as the source filed them. For most assays here, no stated cut-off is given here; in the data, actives have a measured Kd and inactives only a lower limit.

Tests used:
[1] = molecular target: LIM domain kinase 1 (Homo sapiens, UniProt P53667)
[2] = molecular target: Serine/threonine-protein kinase PAK 4 (Homo sapiens, UniProt O96013)
[3] = molecular target: Glycogen synthase kinase-3 alpha (Homo sapiens, UniProt P49840)
Glycogen synthase kinase-3 alpha, sequence (P49840 whole entry): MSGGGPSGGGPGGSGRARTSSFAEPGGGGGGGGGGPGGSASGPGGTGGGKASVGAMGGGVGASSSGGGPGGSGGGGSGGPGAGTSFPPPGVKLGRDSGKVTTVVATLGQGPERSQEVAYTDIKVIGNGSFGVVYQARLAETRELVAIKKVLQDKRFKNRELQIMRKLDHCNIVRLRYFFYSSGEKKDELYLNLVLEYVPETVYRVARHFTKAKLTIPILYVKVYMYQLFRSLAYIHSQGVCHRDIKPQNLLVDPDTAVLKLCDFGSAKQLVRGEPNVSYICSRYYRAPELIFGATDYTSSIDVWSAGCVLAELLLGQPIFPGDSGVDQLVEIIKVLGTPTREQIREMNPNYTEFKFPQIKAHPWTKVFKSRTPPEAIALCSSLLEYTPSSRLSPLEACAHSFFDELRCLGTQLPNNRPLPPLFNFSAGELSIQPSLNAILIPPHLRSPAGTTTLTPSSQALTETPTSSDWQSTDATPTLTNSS

[4] = molecular target: Adenylate kinase 2, mitochondrial (Homo sapiens, UniProt P54819)
[5] = molecular target: Mitotic checkpoint serine/threonine-protein kinase BUB1 (Homo sapiens, UniProt O43683)
[6] = molecular target: T1, Exosome RNA helicase MTR4 (Homo sapiens, UniProt P42285)
T1 sequence (P42285 whole entry): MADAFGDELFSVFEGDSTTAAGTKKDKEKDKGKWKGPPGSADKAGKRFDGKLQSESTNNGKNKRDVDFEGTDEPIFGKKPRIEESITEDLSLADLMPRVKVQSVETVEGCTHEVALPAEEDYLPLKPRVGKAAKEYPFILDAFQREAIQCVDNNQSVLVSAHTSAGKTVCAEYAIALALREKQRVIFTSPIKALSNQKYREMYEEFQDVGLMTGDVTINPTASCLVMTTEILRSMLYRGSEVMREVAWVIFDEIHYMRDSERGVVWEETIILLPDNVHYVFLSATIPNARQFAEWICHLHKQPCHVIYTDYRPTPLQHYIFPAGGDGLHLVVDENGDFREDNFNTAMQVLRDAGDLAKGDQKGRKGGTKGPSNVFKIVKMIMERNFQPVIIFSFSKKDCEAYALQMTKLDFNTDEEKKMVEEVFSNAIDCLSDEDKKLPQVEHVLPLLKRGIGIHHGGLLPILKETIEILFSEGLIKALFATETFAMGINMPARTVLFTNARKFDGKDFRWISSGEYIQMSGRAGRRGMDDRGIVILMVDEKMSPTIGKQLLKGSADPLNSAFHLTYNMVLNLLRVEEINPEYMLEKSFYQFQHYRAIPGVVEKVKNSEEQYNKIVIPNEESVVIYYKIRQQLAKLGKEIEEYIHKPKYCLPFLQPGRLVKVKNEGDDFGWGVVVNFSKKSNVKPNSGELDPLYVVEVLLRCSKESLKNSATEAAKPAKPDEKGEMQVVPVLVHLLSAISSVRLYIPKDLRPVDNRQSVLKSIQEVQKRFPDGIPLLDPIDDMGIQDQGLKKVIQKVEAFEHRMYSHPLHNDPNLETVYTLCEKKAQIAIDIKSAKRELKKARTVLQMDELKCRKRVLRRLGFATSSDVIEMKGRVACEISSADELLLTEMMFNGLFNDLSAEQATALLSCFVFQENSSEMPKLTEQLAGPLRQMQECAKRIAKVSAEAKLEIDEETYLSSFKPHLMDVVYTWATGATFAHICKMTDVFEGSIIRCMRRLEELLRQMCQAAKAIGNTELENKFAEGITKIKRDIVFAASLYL

[7] = molecular target: T2, Serine/threonine-protein kinase 3 (Homo sapiens, UniProt Q13188)
T2 sequence (Q13188 whole entry): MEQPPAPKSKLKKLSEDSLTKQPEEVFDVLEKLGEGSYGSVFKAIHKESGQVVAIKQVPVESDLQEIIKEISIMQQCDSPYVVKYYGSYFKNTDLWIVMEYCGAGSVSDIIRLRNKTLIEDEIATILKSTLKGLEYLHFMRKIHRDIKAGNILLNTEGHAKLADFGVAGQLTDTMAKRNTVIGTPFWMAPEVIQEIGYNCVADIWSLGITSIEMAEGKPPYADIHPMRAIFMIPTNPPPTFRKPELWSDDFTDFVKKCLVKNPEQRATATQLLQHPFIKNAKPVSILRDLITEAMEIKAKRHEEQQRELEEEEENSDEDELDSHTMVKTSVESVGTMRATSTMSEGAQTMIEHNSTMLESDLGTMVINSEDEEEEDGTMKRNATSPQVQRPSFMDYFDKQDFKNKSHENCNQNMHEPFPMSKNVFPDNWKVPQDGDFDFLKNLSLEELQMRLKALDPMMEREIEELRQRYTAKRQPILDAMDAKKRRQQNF

[8] = molecular target: T3, Serine/threonine-protein kinase Chk1 (Homo sapiens, UniProt O14757)
T3 sequence (O14757 whole entry): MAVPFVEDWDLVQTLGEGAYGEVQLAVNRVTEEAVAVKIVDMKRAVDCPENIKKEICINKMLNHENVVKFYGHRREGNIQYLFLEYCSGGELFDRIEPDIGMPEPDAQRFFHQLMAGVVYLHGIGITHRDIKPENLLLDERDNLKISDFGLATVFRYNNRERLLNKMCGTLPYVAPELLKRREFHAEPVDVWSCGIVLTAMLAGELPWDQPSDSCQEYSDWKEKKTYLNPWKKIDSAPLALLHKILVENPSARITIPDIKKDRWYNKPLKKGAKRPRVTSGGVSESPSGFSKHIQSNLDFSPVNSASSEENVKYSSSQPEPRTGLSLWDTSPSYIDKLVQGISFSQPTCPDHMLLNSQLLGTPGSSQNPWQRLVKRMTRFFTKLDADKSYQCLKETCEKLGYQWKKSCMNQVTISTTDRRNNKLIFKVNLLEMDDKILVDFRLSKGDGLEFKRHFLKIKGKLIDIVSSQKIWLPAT

[9] = molecular target: Serine/threonine-protein kinase 16 (Homo sapiens, UniProt O75716)
Serine/threonine-protein kinase 16, sequence (O75716 whole entry): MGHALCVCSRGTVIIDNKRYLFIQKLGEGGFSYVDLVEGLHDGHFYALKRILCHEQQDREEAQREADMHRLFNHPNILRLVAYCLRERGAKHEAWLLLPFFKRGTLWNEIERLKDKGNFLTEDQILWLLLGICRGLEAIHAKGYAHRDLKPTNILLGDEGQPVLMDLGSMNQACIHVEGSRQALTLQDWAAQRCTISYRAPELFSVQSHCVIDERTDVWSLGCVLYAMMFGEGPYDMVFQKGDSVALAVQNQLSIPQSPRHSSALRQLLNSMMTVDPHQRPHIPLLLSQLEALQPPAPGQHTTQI

[10] = molecular target: Calcium/calmodulin-dependent protein kinase type II subunit delta (Homo sapiens, UniProt Q13557)
Calcium/calmodulin-dependent protein kinase type II subunit delta, sequence (Q13557 whole entry): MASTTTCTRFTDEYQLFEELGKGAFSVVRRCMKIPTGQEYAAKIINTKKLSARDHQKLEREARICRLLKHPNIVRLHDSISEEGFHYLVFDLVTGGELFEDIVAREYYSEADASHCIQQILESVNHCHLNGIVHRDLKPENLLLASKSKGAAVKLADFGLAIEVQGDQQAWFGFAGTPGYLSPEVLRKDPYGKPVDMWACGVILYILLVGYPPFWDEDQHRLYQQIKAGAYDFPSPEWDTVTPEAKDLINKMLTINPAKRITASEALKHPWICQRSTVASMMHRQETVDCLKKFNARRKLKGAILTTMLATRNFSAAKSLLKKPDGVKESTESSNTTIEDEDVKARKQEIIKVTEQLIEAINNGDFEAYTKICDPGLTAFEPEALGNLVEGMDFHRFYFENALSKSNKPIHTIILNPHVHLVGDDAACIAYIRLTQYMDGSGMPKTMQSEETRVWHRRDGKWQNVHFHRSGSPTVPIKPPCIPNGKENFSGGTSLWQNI

[11] = molecular target: Serine/threonine-protein kinase SIK3 (Homo sapiens, UniProt Q9Y2K2)
Serine/threonine-protein kinase SIK3, sequence (Q9Y2K2 whole entry): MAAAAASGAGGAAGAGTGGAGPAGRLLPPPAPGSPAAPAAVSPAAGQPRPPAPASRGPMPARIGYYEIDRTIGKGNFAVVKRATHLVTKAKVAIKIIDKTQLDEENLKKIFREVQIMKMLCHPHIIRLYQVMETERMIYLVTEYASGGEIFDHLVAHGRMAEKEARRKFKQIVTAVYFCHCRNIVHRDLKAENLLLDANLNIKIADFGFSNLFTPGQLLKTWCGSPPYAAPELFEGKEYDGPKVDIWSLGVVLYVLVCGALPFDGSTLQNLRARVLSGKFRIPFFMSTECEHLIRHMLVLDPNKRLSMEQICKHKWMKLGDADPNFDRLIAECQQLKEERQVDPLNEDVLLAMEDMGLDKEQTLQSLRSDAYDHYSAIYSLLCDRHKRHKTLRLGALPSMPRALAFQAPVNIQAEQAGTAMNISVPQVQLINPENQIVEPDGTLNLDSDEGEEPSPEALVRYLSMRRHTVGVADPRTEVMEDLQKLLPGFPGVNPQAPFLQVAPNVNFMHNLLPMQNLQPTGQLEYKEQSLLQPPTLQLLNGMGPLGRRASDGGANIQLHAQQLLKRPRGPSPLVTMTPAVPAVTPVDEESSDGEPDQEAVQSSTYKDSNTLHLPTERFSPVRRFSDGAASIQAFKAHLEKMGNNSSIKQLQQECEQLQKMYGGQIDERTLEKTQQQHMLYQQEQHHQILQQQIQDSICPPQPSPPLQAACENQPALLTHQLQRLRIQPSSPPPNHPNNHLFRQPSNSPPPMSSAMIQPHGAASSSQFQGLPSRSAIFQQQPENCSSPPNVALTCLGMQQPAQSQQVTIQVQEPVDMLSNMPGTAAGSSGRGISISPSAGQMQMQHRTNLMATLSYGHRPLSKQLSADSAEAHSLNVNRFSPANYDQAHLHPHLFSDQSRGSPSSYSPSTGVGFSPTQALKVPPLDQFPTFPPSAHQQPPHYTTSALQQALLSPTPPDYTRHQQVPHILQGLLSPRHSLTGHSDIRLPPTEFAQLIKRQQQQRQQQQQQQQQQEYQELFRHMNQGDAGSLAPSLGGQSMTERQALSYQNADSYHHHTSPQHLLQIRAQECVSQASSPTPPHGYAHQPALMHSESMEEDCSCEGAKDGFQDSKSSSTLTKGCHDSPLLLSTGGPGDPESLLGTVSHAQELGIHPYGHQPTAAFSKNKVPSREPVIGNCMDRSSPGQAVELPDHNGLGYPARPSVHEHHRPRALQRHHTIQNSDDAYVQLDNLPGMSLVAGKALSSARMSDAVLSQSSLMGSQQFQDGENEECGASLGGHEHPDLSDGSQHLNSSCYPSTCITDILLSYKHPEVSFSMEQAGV

[12] = molecular target: Adenosine kinase (Homo sapiens, UniProt P55263)
Adenosine kinase, sequence (P55263 whole entry): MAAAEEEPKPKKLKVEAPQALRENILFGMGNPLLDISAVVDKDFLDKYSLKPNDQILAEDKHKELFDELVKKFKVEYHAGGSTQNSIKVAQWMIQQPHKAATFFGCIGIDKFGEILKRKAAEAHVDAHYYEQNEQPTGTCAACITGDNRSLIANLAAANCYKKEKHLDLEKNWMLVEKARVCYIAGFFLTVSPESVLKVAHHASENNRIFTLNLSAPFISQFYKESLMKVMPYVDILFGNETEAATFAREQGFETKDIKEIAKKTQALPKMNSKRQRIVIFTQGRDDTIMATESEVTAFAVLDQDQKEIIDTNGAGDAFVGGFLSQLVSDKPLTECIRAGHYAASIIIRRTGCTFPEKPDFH

[13] = molecular target: Cyclin-dependent kinase 3 (Homo sapiens, UniProt Q00526)
Cyclin-dependent kinase 3, sequence (Q00526 whole entry): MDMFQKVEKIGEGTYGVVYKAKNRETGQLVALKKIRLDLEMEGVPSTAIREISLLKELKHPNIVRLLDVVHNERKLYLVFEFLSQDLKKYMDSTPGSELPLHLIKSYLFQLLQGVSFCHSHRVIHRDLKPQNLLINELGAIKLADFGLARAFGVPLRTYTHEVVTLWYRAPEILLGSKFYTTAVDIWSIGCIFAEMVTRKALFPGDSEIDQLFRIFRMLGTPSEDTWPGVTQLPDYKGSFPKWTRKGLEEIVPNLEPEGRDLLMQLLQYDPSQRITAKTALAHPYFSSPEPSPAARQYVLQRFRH

[14] = molecular target: Cyclin-dependent kinase 5 (Homo sapiens, UniProt Q00535)
Cyclin-dependent kinase 5, sequence (Q00535 whole entry, the tested form may be a part): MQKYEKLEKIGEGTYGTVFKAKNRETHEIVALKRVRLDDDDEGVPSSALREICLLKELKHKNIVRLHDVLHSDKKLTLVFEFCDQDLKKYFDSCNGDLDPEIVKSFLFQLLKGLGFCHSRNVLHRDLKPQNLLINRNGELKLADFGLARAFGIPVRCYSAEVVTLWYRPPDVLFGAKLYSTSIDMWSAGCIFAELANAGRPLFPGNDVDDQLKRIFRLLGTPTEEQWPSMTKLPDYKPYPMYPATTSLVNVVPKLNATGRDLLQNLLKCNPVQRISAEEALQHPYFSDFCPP

[15] = molecular target: LIM domain kinase 2 (Homo sapiens, UniProt P53671)
LIM domain kinase 2, sequence (P53671 whole entry, the tested form may be a part): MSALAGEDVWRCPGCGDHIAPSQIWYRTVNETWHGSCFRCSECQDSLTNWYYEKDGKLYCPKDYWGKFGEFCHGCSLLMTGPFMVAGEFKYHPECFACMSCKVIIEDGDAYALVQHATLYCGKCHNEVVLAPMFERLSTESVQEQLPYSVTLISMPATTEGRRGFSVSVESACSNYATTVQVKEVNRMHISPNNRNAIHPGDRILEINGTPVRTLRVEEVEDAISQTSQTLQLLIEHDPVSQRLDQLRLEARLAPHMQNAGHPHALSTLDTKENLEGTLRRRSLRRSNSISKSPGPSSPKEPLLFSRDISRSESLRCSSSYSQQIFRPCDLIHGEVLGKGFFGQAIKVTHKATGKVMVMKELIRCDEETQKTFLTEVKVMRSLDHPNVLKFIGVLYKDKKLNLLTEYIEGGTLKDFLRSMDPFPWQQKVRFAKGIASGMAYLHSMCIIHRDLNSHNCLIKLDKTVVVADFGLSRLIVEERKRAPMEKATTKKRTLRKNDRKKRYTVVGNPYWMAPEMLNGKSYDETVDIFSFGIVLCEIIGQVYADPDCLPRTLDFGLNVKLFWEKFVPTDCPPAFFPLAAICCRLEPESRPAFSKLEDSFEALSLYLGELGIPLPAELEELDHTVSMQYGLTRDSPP

LIM domain kinase 1, sequence (P53667 whole entry, the tested form may be a part): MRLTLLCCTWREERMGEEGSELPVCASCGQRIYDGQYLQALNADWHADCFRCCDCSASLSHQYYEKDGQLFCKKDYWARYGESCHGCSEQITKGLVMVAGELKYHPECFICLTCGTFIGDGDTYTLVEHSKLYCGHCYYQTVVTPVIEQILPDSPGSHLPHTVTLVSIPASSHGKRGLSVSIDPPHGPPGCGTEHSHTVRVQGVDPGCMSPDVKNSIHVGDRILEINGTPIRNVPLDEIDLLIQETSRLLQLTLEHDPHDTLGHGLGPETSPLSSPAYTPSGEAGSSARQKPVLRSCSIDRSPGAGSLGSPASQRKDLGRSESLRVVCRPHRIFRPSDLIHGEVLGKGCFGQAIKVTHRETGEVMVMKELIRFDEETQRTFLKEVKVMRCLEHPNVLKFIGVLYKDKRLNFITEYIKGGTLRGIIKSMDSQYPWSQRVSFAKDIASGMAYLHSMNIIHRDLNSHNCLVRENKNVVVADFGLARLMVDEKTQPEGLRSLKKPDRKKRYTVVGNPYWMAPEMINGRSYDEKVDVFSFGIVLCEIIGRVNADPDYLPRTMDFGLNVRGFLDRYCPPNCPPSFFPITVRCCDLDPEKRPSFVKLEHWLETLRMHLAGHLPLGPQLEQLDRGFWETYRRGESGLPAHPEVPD

Structure (SMILES): COc1cc(F)c(F)c(Nc2ccc(I)cc2F)c1NS(=O)(=O)C1(C[C@H](O)CO)CC1 [REFAMETINIB]
- Kd [1]: > 30 µM (inactive)
- Kd [2]: > 30 µM (inactive)
- Kd [3]: > 30 µM (inactive)
- Kd [4]: > 30 µM (inactive)
- Kd [5]: > 30 µM (inactive)
- Kd [6]: > 30 µM (inactive)
- Kd [7]: > 30 µM (inactive)
- Kd [8]: 0.439 µM (active)
- Kd [9]: > 30 µM (inactive)
- Kd [10]: > 30 µM (inactive)
- Kd [11]: > 30 µM (inactive)
- Kd [12]: > 30 µM (inactive)
- Kd [13]: > 30 µM (inactive)
- Kd [14]: > 30 µM (inactive)
- Kd [15]: > 30 µM (inactive)

Structure (SMILES): COCCN1CCN(Cc2ccc(-c3n[nH]c4c3C(=O)c3c(NC(=O)NN5CCOCC5)cccc3-4)cc2)CC1 [RGB-286638]
- Kd [1]: > 30 µM (inactive)
- Kd [2]: > 30 µM (inactive)
- Kd [3]: 0.007 µM (active)
- Kd [4]: > 30 µM (inactive)
- Kd [5]: > 30 µM (inactive)
- Kd [6]: > 30 µM (inactive)
- Kd [7]: > 30 µM (inactive)
- Kd [8]: > 30 µM (inactive)
- Kd [9]: 0.515 µM
- Kd [10]: > 30 µM (inactive)
- Kd [11]: > 30 µM (inactive)
- Kd [12]: > 30 µM (inactive)
- Kd [13]: > 30 µM (inactive)
- Kd [14]: 0.318 µM (active)
- Kd [15]: > 30 µM (inactive)

Structure (SMILES): CN1CCN(c2nc(C3=C(c4c[nH]c5ccccc45)C(=O)NC3=O)c3ccccc3n2)CC1 [SOTRASTAURIN]
- Kd [1]: > 30 µM (inactive)
- Kd [2]: > 30 µM (inactive)
- Kd [3]: 1.2 µM (active)
- Kd [4]: > 30 µM (inactive)
- Kd [5]: > 30 µM (inactive)
- Kd [6]: > 30 µM (inactive)
- Kd [7]: > 30 µM (inactive)
- Kd [8]: > 30 µM (inactive)
- Kd [9]: > 30 µM (inactive)
- Kd [10]: > 30 µM (inactive)
- Kd [11]: > 30 µM (inactive)
- Kd [12]: > 30 µM (inactive)
- Kd [13]: > 30 µM (inactive)
- Kd [14]: > 30 µM (inactive)
- Kd [15]: > 30 µM (inactive)

Structure (SMILES): Cn1c(=O)c(F)c(Nc2ccc(I)cc2F)c2c(=O)n(C[C@@H](O)CO)cnc21 [TAK-733]
- Kd [1]: > 30 µM (inactive)
- Kd [2]: > 30 µM (inactive)
- Kd [3]: > 30 µM (inactive)
- Kd [4]: > 30 µM (inactive)
- Kd [5]: > 30 µM (inactive)
- Kd [6]: > 30 µM (inactive)
- Kd [7]: > 30 µM (inactive)
- Kd [8]: > 30 µM (inactive)
- Kd [9]: > 30 µM (inactive)
- Kd [10]: > 30 µM (inactive)
- Kd [11]: > 30 µM (inactive)
- Kd [12]: > 30 µM (inactive)
- Kd [13]: > 30 µM (inactive)
- Kd [14]: > 30 µM (inactive)
- Kd [15]: > 30 µM (inactive)

Structure (SMILES): O[C@H]1CC[C@H](Nc2ncc3nc(Nc4c(F)cc(F)cc4F)n([C@H]4CCOC4)c3n2)CC1 [TANZISERTIB]
- Kd [1]: 2.17 µM (active)
- Kd [2]: > 30 µM (inactive)
- Kd [3]: > 30 µM (inactive)
- Kd [4]: > 30 µM (inactive)
- Kd [5]: > 30 µM (inactive)
- Kd [6]: > 30 µM (inactive)
- Kd [7]: > 30 µM (inactive)
- Kd [8]: > 30 µM (inactive)
- Kd [9]: > 30 µM (inactive)
- Kd [10]: > 30 µM (inactive)
- Kd [11]: 2.98 µM (active)
- Kd [12]: > 30 µM (inactive)
- Kd [13]: > 30 µM (inactive)
- Kd [14]: > 30 µM (inactive)
- Kd [15]: 1.84 µM (active)
